Source: patent publication US5304565A, “Nitrogen containing heterocyclic compounds, their production and use” (Takeda Chemical Industries, Ltd., priority 1990, dated 1994)

Key:
[1] = molecular target: T1, A-II-receptor (membrane fraction of bovine adrenal cortex) (Bos taurus, UniProt P25104); experiment: Inhibition of binding of angiotensin-II to angiotensin receptor (radio receptor assay, 125I-A-II); details: room temperature, one hour; for inhibition at 1 µM: 10^-6 M; for inhibition at 0.1 µM: 10^-7 M
T1 construct: prepared from the membrane fraction of bovine adrenal cortex; from tissue; host or cells: bovine adrenal cortex, membrane fraction
T1 sequence (P25104 1-359): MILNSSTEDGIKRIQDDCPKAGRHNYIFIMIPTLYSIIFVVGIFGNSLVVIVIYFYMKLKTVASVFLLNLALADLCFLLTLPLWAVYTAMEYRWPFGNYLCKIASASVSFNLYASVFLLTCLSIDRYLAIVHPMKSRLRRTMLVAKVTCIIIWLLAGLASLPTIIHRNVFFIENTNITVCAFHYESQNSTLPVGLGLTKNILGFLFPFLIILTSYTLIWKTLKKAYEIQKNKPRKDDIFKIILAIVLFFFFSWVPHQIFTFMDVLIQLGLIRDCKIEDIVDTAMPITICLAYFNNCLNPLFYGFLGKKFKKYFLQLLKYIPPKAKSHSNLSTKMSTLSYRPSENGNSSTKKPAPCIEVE
Protocol: An experiment of inhibition on the binding of angiotensin-II (A-II) to A-II-receptor was conducted by modifying the method of Douglas et al. [Endocrinology, 102, 685-696 (1978)]. An A-II-receptor was prepared from the membrane fraction of bovine adrenal cortex.
The compound of the present invention (10^-9 M to 3×10^-5 M) and ^125 I-A-II (1.85 kBq/50 μl) were added to the receptor membrane fraction, and the mixture was incubated at room temperature for one hour. The receptor-bound and free ^125 I-A-II were separated through a filter (Whatman GF/B filter), and the radioactivity of ^125 I-A-II bound to the receptor was measured.

[2] = tested on: A-II-induced pressor action; experiment: Inhibitory effect on pressor action of A-II (100 ng/kg i.v.) after oral administration; format: in vivo, Jcl: SD rats (9 week old, male); details: Rattus norvegicus, 30 mg/kg p.o., SD rats, read-out: Pressor Response (30 mg/Kg, p.o.) (% Inhibition)
Protocol: Jcl: SD rats (9 week old, male) were used. On the day previous to the experiment, these animals were applied with cannulation into the femoral artery and vein under anesthesia with pentobarbital Na. The animals were fasted but allowed free access to drinking water until the experiment was started. Just on the day of conducting the experiment, the artery cannula was connected with a blood-pressure transducer, and the average blood pressure was recorded by means of polygraph. Before administration of the drug, the pressor action due to intravenous administration of A-II (100 ng/kg) as the control was measured. The drugs were orally administered, and then, at each point of the measurement, A-II was administered intravenously, and the pressor action was similarly measured. By comparing the pressor action before and after administration of the drug, the precent inhibition by the drug on A-II-induced pressor action was evaluated.

SMILES | inhibition at 1 µM [1] [%] | inhibition at 0.1 µM [1] [%] | inhibition in vivo at 30 mg/kg [2] [%]
CCCCc1cc(=O)c(C(=O)OCC)cn1Cc1ccc(-c2ccccc2C(=O)O)cc1 [Working Example 1, Ethyl 6-n-butyl-1-[(2'-carboxybiphenyl-4-yl)methyl]-4-oxo-1,4-dihydronicotinate] | 67 | 24 | –
CCCCc1cc(=O)c(C(=O)OCC)cn1Cc1ccc(-c2ccccc2-c2nnn[nH]2)cc1 [Working Example 2, Ethyl 6-n-butyl-4-oxo-1-[[2'-(1H-tetrazol-5-yl)biphenyl-4-yl]methyl]-1,4-dihydronicotinate] | 67 | 25 | –
CCCCCc1cc(=O)c(C(=O)OCC)cn1Cc1ccc(-c2ccccc2-c2nn[nH]n2)cc1 [Working Example 3] | 71 | 28 | –
CCCc1cc(=O)c(C(=O)OCC)cn1Cc1ccc(-c2ccccc2-c2nn[nH]n2)cc1 [Working Example 4] | 72 | 31 | –
CCCCc1nc(COC)cc(=O)n1Cc1ccc(-c2ccccc2-c2nnn[nH]2)cc1 [Working Example 8, 2-n-Butyl-3-[[2'-(1H-tetrazol-5-yl)biphenyl-4-yl]methyl]-6-methoxymethyl-4(3H)-pyrimidone] | 73 | 29 | –
CCCCc1ncc(C(=O)OCC)c(=O)n1Cc1ccc(-c2ccccc2-c2nnn[nH]2)cc1 [Working Example 10, Ethyl 2-n-butyl-4-oxo-3-[[2'-(1H-tetrazol-5-yl)biphenyl-4-yl]methyl]-3,4-dihydropyrimidine-5-carboxylate] | 75 | 32 | –
CCCCc1nc(=O)c(C(=O)OCC)cn1Cc1ccc(-c2ccccc2-c2nnn[nH]2)cc1 [Working Example 11, Ethyl 2-n-butyl-4-oxo-1-[[2'-(1H-tetrazol-5-yl)biphenyl-4-yl]methyl]-1,4-dihydropyrimidine-5-carboxylate] | 70 | 29 | –
CCCCc1ncc([N+](=O)[O-])c(=O)n1Cc1ccc(-c2ccccc2-c2nn[nH]n2)cc1 [Working Example 13, 2-n-Butyl-5-nitro-3-[[2'-(1H-tetrazol-5-yl)biphenyl-4-yl-]methyl]-4(3H)-pyrimidone] | 73 | 30 | –
CCCCc1nc(CC(=O)OC)cc(=O)n1Cc1ccc(-c2ccccc2-c2nnn[nH]2)cc1 [Working Example 16, 2-n-Butyl-6-methoxycarbonylmethyl-3-[[2'-(1H-tetrazol-5-yl)biphenyl-4-yl]methyl]-4(3H)-pyrimidone] | 68 | 31 | –
CCCCc1nc2ccccc2c(=O)n1Cc1ccc(-c2ccccc2-c2nnn[nH]2)cc1 [Working Example 23, 2-n-Butyl-3-[[2'-(1H-tetrazol-5-yl)biphenyl-4-yl]methyl]-4(3H)-quinazolinon] | 85 | 46 | ≥ 70
CCCCc1nc2cc([N+](=O)[O-])ccc2c(=O)n1Cc1ccc(-c2ccccc2-c2nn[nH]n2)cc1 [Working Example 24] | 41 | 3 | –

The next lines start with results.

inhibition at 1 µM [1] [%] | inhibition at 0.1 µM [1] [%] | SMILES | inhibition in vivo at 30 mg/kg [2] [%]
58 | 18 | CCCCc1nc2cc(Cl)ccc2c(=O)n1Cc1ccc(-c2ccccc2-c2nn[nH]n2)cc1 [Working Example 25] | –
74 | 36 | CCCCc1nc2cccc(C)c2c(=O)n1Cc1ccc(-c2ccccc2-c2nn[nH]n2)cc1 [Working Example 26] | ≥ 70
92 | 66 | CCCCC(=O)Oc1ccc2nc(CCCC)n(Cc3ccc(-c4ccccc4-c4nn[nH]n4)cc3)c(=O)c2c1 [Working Example 29] | ≥ 70
93 | 72 | CCCCc1nc2cccc(COC(C)=O)c2c(=O)n1Cc1ccc(-c2ccccc2-c2nn[nH]n2)cc1 [Working Example 32] | ≥ 70
97 | 77 | CCCCc1nc2ccc(OC)cc2c(=O)n1Cc1ccc(-c2ccccc2-c2nn[nH]n2)cc1 [Working Example 37] | ≥ 70
89 | 59 | CCCCc1nc2ccc(OCC(=O)OC)cc2c(=O)n1Cc1ccc(-c2ccccc2-c2nn[nH]n2)cc1 [Working Example 38] | ≥ 70
92 | 69 | CCCCc1nc2ccc(OCCOC(C)=O)cc2c(=O)n1Cc1ccc(-c2ccccc2-c2nn[nH]n2)cc1 [Working Example 39] | ≥ 70
83 | 48 | CCCc1nc2ccc(OCCOC(=O)c3ccccc3)cc2c(=O)n1Cc1ccc(-c2ccccc2-c2nn[nH]n2)cc1 [Working Example 41] | ≥ 70
95 | 81 | CCCc1nc2ccc(OCC(=O)N3CCOCC3)cc2c(=O)n1Cc1ccc(-c2ccccc2-c2nn[nH]n2)cc1 [Working Example 48] | –
88 | 63 | CCCc1nc2ccc(OCC(=O)NCc3ccccc3)cc2c(=O)n1Cc1ccc(-c2ccccc2-c2nn[nH]n2)cc1 [Working Example 49] | –
95 | 73 | CCCCc1nc2cccc(COC)c2c(=O)n1Cc1ccc(-c2ccccc2-c2nn[nH]n2)cc1 [Working Example 50] | –
92 | 76 | CCCc1nc2ccc(OCCO)cc2c(=O)n1Cc1ccc(-c2ccccc2-c2nnn[nH]2)cc1 [Working Example 53, 6-(2-Hydroxyethyloxy)-2-propyl-3-[[2'-(1H-tetrazol-5-yl)biphenyl-4-yl]methyl]-4(3H)-quinazolinone] | ≥ 70
88 | 74 | CCCCc1nc2cccc(CO)c2c(=O)n1Cc1ccc(-c2ccccc2-c2nnn[nH]2)cc1 [Working Example 54, 2-Butyl-5-hydroxymethyl-3-[[2'-(1H-tetrazol-5-yl)biphenyl-4-yl]methyl]-4(3H)-quinazolinone] | ≥ 70
94 | 75 | CCCCc1nc2ccc(OCCO)cc2c(=O)n1Cc1ccc(-c2ccccc2-c2nnn[nH]2)cc1 [Working Example 55, 2-Butyl-6-(2-hydroxyethyloxy)-3-[[2'-(1H-tetrazol-5-yl)biphenyl-4-yl]-methyl]-4(3H)-quinazolinone] | ≥ 70
